# Values joined by “and” are separate entries in the source; they are usually repeats but may differ in a detail not shown here. Identical values can stand only once. Like-named read-outs stand apart in the source and are kept apart here.
# Assays:
# [1] = test system: Wi-38 cells; experiment: MTT cytotoxicity assay, normal human fibroblasts; format: cell-based; settings: 72 h, mean ± SEM; for MNTC: dose at 100% cell viability, read-out: Wi-38 EC100
# Method: (§1) Wi-38, Caco-2 and HepG-2 cells were cultured in DMEM medium-contained 10% FBS, seeded as 5 × 10^3 cells per well in 96-well cell culture plate and incubated at 37 °C in 5% CO2 incubator. After 24 h, serial concentrations of the test compounds were incubated with cells for 72 h. Cell viability was assayed via MTT protocol[27] (Supplementary data). IC50 values of the synthesized compounds were measured via the Graphpad Instat software. Morphological changes were examined using phase contrast inverted microscope with a digital camera (Olympus, Japan). […]
# (§2) Normal human lung fibroblast Wi-38 cell line was used to detect cytotoxicity of the studied compounds.
# Wi-38 cell line was cultured in DMEM medium-contained 10% fetal bovine serum (FBS), seeded as 5x10^3 cells per well in 96-well cell culture plate and incubated at 37 °C in 5% CO2 incubator. After 24 h for cell attachment, serial concentrations of the synthetic compounds and standard chemotherapy (5-fluorouracil) were incubated with Wi-38 cells for 72 h. Cell viability was assayed by MTT method Twenty microliters of 5 mg/ml MTT (Sigma, USA) was added to each well and the plate was incubated at 37 °C for 3 h. Then MTT solution was removed, 100 µl DMSO was added, and the absorbance of each well was measured with a microplate reader (BMG LabTech, Germany) at 570 nm. The dose (EC50 and EC100) values (at 50% and100% cell viability, respectively) of the tested compounds was estimated by the Graphpad Instat software. […]
# [2] = test system: Caco-2 cells; experiment: MTT cytotoxicity assay, colorectal cancer cells; format: cell-based, human; settings: for IC50: Homo sapiens; for Caco-2 SI: ratio of IC50 against normal cells (Wi-38) to IC50 against Caco-2
# Method: as §1, §2
# (§3) Wi-38 cell line was cultured in DMEM medium-contained 10% fetal bovine serum (FBS), seeded as 5x10^3 cells per well in 96-well cell culture plate and incubated at 37 °C in 5% CO2 incubator. After 24 h for cell attachment, serial concentrations of the synthetic compounds and standard chemotherapy (5-fluorouracil) were incubated with Wi-38 cells for 72 h. Cell viability was assayed by MTT method Twenty microliters of 5 mg/ml MTT (Sigma, USA) was added to each well and the plate was incubated at 37 °C for 3 h. Then MTT solution was removed, 100 µl DMSO was added, and the absorbance of each well was measured with a microplate reader (BMG LabTech, Germany) at 570 nm. The dose (EC50 and EC100) values (at 50% and100% cell viability, respectively) of the tested compounds was estimated by the Graphpad Instat software.
# (§4) The anticancer effect of the above-mentioned compounds was assayed using human colon cancer cell line (Caco-2) and liver cancer cell line (HepG-2) that were cultured in DMEM (Lonza, USA) supplemented with 10%
# (§5) FBS. All cancer cells (5x10^3 cells/well) were seeded in sterile 96-well plates. After 24h, serial concentrations of the tested compounds and 5-fluorouracil (Fu) were incubated with two cancer cell lines for 72 h at 37 °C in 5% CO2 incubator. MTT method was done as described above. The half maximal inhibitory concentration (IC50) values were calculated using the Graphpad Instat software. Furthermore, cellular morphological changes before […]
# (§6) contrast inverted microscope with a digital camera (Olympus, Japan).
# [3] = test system: HepG-2 cells; experiment: MTT cytotoxicity assay, liver cancer cells; format: cell-based, human; settings: for IC50: Homo sapiens, HepG2; for HepG-2 SI: ratio of IC50 against normal cells (Wi-38) to IC50 against HepG-2
# Method: as §1, §2, §3, §4, §5, §6
# [4] = test system: caspase-3/7; experiment: Caspase-3/7 activation assay (ApoONE kit) in Caco-2 cells; format: cell-based, human; settings: Caco-2 cells treated with IC50 doses; relative to untreated cells; mean ± SEM
# Method: (§7) ApoONE® Caspase-3/7 kit was used following the manufacturer’s instructions (Supplementary data).
# (§8) 5.2. Caspase-3/7 activation assay
# (§9) The caspase 3/7 activation was assessed, as a key indicator in caspase-dependent apoptosis, using ApoONE® Caspase-3/7 kit following the manufacturer’s instructions. This kit used a nonfluorescence substrate […]
# (§10) the generation of the fluorescence signals of Rhodamine 110. Thesesignal were measured at 490 nm excitation and 520 nm emission using the fluorescence microplate reader (BMG LabTech, Germany). […]
# [5] = test system: caspase-3/7; experiment: Caspase-3/7 activation assay (ApoONE kit) in HepG-2 cells; format: cell-based, human; settings: HepG-2 cells treated with IC50 doses; relative to untreated cells; mean ± SEM
# Method: as §7, §8, §9, §10
# [6] = test system: Bcl2; experiment: RT-qPCR of Bcl2 expression in Caco-2 cells; format: cell-based, human; settings: 0.06 µM for 72 h, mean ± SEM
# Method: (§11) RNAs of untreated and treated cancer cells were extracted using Gene JET RNA purification kit (Thermo Scientific, USA). Then cDNAs were synthesized using cDNA Synthesis Kit (Thermo Scientific, USA). Real time PCR was performed using SYBR green master mix and specific primers (Forward/Reverse) as detailed in the supplementary data. […]
# 5.3. Real-time Quantitative PCR Analysis of Bcl2 […]
# as §11, with “µM, for 72 h in 5% CO2 incubator. RNAs” for “RNAs”, “primers” for “primers (Forward/Reverse) as detailed in the supplementary data.”
# The thermal cycling parameters were pre-denaturation, followed by 40 amplification cycles of 1 min at 95°C and 30 s at 60 °C and at 72°C for 30 sec. GAPDH mRNA was quantified to adjust the amount of mRNA in each sample. The 2−ΔΔCT equation was used to estimate change in gene expressions before and after treatment of cancer cells.
# Table 1 primer sequences of the used genes
# [7] = test system: Caco-2 cells; experiment: Flow cytometric analysis of apoptosis (annexin V/PI); format: cell-based, human; settings: IC50 doses, 72 h, annexin-stained, mean ± SEM
# Method: Reverse: 5′-[…]-3′
# 5.4. Flow cytometric analysis of apoptosis […]
# human colon cancer cell line (Caco-2) for 72 h, at their minimum IC50 doses. After trypsinization, the untreated and treated cancer cells were stained with fluorescein isothiocyanate (FITC)-annexin V/ propidium iodide (PI) for 15 min. After washing with PBS, the annexin-stained apoptotic population was quantified using flow cytometry at FITC signal detector (FL1) against the phycoerythrin emission signal detector (FL2).
# [8] = Caco-2, MTT, 72 h, mean ± SEM, read-out: Caco-2 IC50 (converted)
# [9] = MTT, 72 h, mean ± SEM, read-out: HepG-2 IC50
# [10] = microscopic examination after 72 h, compared to untreated and 5-FU-treated cells
smiles,measurement,setting,value
"O=c1[nH]cc(F)c(=O)[nH]1 [5-FU, 5-fluorouracil, reference compound]",MNTC,[1],840 ± 55 nM
same,IC50,[1],1990 ± 135 nM
same,IC50,[2]; [8],865 ± 39 nM
same,Caco-2 SI,[2],2.301
same,IC50,[3]; [9],1610 ± 28 nM
same,HepG-2 SI,[3],1.233
same,"Relative fold increment in caspase 3/7 activity, Caco-2",[4],1.016 ± 0.009 fold
same,"Relative fold increment in caspase 3/7 activity, HepG-2",[5],1.001 ± 0.001 fold
same,Bcl2 gene relative fold change,[6],0.948 ± 0.027 fold
"CCOC(=O)c1ccc(NC(=O)C2(OC(=O)c3ccc4ccccc4n3)CCCCC2)cc1 [7b, 1-((4-(Ethoxycarbonyl)phenyl)carbamoyl)cyclohexyl quinoline-2-carboxylate]",MNTC,[1],1790 ± 111 nM
same,IC50,[1],18200 ± 2220 nM
same,IC50,[2]; [8],172 ± 22 nM
same,Caco-2 SI,[2],105.697
same,IC50,[3]; [9],228 ± 27 nM
same,HepG-2 SI,[3],79.736
same,melting point,,103 to 105 °C
"CCOC(=O)c1ccc(NC(=O)C2(OC(=O)c3ccccc3)CCCCC2)cc1 [7c, Ethyl-4-(1-(benzoyloxy)cyclohexanecarboxamido)benzoate]",MNTC,[1],2100 ± 92 nM
same,IC50,[1],7700 ± 321 nM
same,IC50,[2]; [8],276 ± 34 nM
same,Caco-2 SI,[2],27.909
same,IC50,[3]; [9],184 ± 9 nM
same,HepG-2 SI,[3],41.864
same,melting point,,140 to 142 °C
"CCOC(=O)c1ccc(NC(=O)C2(OC(=O)c3ccc(Cl)cc3)CCCCC2)cc1 [7d, 1-((4-(Ethoxycarbonyl)phenyl)carbamoyl)cyclohexyl 4-chlorobenzoate]",MNTC,[1],1700 ± 165 nM
same,IC50,[1],24800 ± 10200 nM
same,IC50,[2]; [8],201 ± 19 nM
same,Caco-2 SI,[2],123.174
same,IC50,[3]; [9],407 ± 16 nM
same,HepG-2 SI,[3],60.830
same,melting point,,193 to 195 °C
"CCOC(=O)c1ccc(NC(=O)C2(OC(=O)c3ccccc3Cl)CCCCC2)cc1 [7e, 1-((4-(Ethoxycarbonyl)phenyl)carbamoyl)cyclohexyl 2-chlorobenzoate]",MNTC,[1],1780 ± 169 nM
same,IC50,[1],19800 ± 1020 nM
same,IC50,[2]; [8],117 ± 10 nM
same,Caco-2 SI,[2],168.820
same,IC50,[3]; [9],130 ± 9 nM
same,HepG-2 SI,[3],151.938
same,melting point,,130 to 132 °C
"CCOC(=O)c1ccc(NC(=O)C2(OC(=O)c3ccccc3I)CCCCC2)cc1 [7f, 1-((4-(Ethoxycarbonyl)phenyl)carbamoyl)cyclohexyl 2-iodobenzoate]",MNTC,[1],967 ± 26 nM
same,IC50,[1],17100 ± 1690 nM
same,IC50,[2]; [8],129 ± 28 nM
same,Caco-2 SI,[2],132.209
same,IC50,[3]; [9],147 ± 46 nM
same,HepG-2 SI,[3],116.020
same,melting point,,148 to 150 °C
"CCOC(=O)c1ccc(NC(=O)C2(OC(=O)Cc3ccccc3)CCCCC2)cc1 [7g, Ethyl-4-(1-(2-phenylacetoxy)cyclohexanecarboxamido)benzoate]",MNTC,[1],1300 ± 105 nM
same,IC50,[1],17100 ± 2150 nM
same,SI against the screened cell lines,[2]; Caco-2 and HepG-2 cells versus Wi-38,262–266
same,IC50,"[2]; Caco-2, -log (IC50), molar, read-out: Caco-2 IC50 (converted)",64.1 nM
same,IC50,[2]; [8],64 ± 6 nM
same,IC50,"[2]; Caco-2 and HepG-2 cells, MTT, read-out: IC50 against the screened cell lines",60 nM
same,Caco-2 LE,[2]; LE = 1.37 (pIC50)/NHA,0.328
same,Caco-2 LLE,[2]; LLE = pIC50–cLog P,3.453
same,Morphological alterations of treated Caco-2 cells,[2]; [10],severe shrinkage and morphological alterations
same,Caco-2 SI,[2],266.828
same,IC50,[3]; [9],65 ± 4 nM
same,IC50,[3]; read-out: HepG-2 pIC50 (converted),65 nM
same,Morphological alterations of treated HepG-2 cells,[3]; [10],severe shrinkage and morphological alterations
same,HepG-2 SI,[3],262.723
same,"Relative fold increment in caspase 3/7 activity, HepG-2",[5],4.118 ± 0.083 fold
same,Bcl2 gene relative fold change,[6],0.087 ± 0.009 fold
same,% Apoptosis (total apoptotic cell population),[7],58.7% and 58.730 ± 2.930%
"CCOC(=O)c1ccc(NC(=O)C2(OC(=O)C=Cc3ccc(C(F)(F)F)cc3)CCCCC2)cc1 [7h, Ethyl-4-(1-((3-(4-(trifluoromethyl)phenyl)acryloyl)oxy)cyclohexanecarboxamido)benzoate]",MNTC,[1],1650 ± 39 nM
same,IC50,[1],18700 ± 2040 nM
same,IC50,[2]; [8],138 ± 14 nM
same,Caco-2 SI,[2],135.340
same,IC50,[3]; [9],259 ± 73 nM
same,HepG-2 SI,[3],72.111
same,melting point,,145 to 147 °C
"CCOC(=O)c1ccc(NC(=O)C2(OC(=O)CNC(=O)c3ccc(NC(=O)OC(C)(C)C)cc3)CCCCC2)cc1 [7i, Ethyl-4-(1-(2-(4-((tert-butoxycarbonyl)amino)benzamido)acetoxy)cyclohexanecarboxamido) benzoate]",MNTC,[1],1630 ± 259 nM
same,IC50,[1],22800 ± 3100 nM
same,IC50,[2]; [8],132 ± 50 nM
same,Caco-2 SI,[2],172.765
same,IC50,[3]; [9],127 ± 44 nM
same,HepG-2 SI,[3],179.566
same,melting point,,115 to 117 °C
"CCOC(=O)c1ccc(NC(=O)C2(OC(=O)CS)CCCCC2)cc1 [7k, Ethyl-4-(1-(2-mercaptoacetoxy)cyclohexane-1-carboxamido)benzoate]",MNTC,[1],1465 ± 10 nM
same,IC50,[1],9670 ± 102 nM
same,IC50,[2]; [8],140 ± 3 nM
same,Caco-2 SI,[2],69.057
same,IC50,[3]; [9],141 nM
same,HepG-2 SI,[3],68.567
same,melting point,,108 to 110 °C
"CCOC(=O)c1ccc(NC(=O)C2(O)CCCCC2)cc1 [compound 9, Ethyl 4-(1-hydroxycyclohexanecarboxamido)benzoate]",MNTC,[1],3220 ± 217 nM
same,IC50,[1],16800 ± 3010 nM
same,IC50,[2]; [8],154 ± 7 nM
same,Caco-2 SI,[2],109.272
same,IC50,[3]; [9],150 ± 4 nM
same,HepG-2 SI,[3],112.186
same,melting point,,160 to 163 °C
"CCOC(=O)c1ccc(N2C(=O)OC3(CCCCC3)C2=O)cc1 [compound 11, Ethyl-4-(2,4-dioxo-1-oxa-3-azaspiro[4.5]decan-3-yl)benzoate]",MNTC,[1],4940 ± 1540 nM
same,IC50,[1],9920 ± 1610 nM
same,IC50,[2]; [8],239 ± 71 nM
same,Caco-2 SI,[2],41.510
same,IC50,[3]; [9],209 ± 17 nM
same,HepG-2 SI,[3],47.468
same,melting point,,143 to 145 °C

# Reference: paper PMC9794698, “Structure optimization of new tumor-selective Passerini α-acyloxy carboxamides as Caspase-3/7 activators” (Scientific Reports, 2022)
